The target of assay [1] is T1, human mu opioid receptor (Homo sapiens, UniProt P35372).
T1 construct: host or cells: CHO-K1
Nature of the assay: Radioligand binding assay, human mu opioid receptor ([3H]-Diprenorphine displacement).

In assay [2] the target is T1, human mu opioid receptor. In words: Human mu GTP-Eu nucleotide exchange assay (agonist mediated activation, CHO-K1 membranes). It is filed as biochemical. The conditions noted are these: bound GTP-Eu relative to DAMGO (IA=100); read-out: intrinsic activity (IA), expressed as a percentage.
Assay [3] relates to loperamide-induced delayed gastric emptying. In words: Rat gastric emptying assay (reversal of loperamide-induced delayed gastric emptying). It is filed as in vivo. The conditions noted are these: administered orally, loperamide 1 mg/kg s.c., gastric emptying model. How it is done: Assay 3: Rat Model of In Vivo Efficacy In this assay the efficacy of test compounds was evaluated in a model of gastrointestinal transit, which evaluates peripheral activity. This study was approved by the Institutional Animal Care and Use Committee at […]. and conformed to the Guide for the Care and Use of Laboratory Animals published by the National Academy of Sciences (©1996). a. Rat Gastric Emptying Assay Test compounds were evaluated in the rat gastric emptying assay to determine their ability to reverse loperamide-induced delayed gastric emptying. […] The administration of test compound was followed by subcutaneous administration of loperamide at a dose of 1 mg/kg or vehicle. Five minutes post loperamide or vehicle administration, a non-nutritive, non-absorbable charcoal meal was administered via oral gavage and animals were allowed free access to water for the sixty minute duration of the experiment. […] Gastric weight was then determined after removal of the ligatures. b. Data Analysis and Results Data was analyzed using the GraphPad Prism Software package (GraphPad Software, Inc., San Diego, Calif.). Percent reversal curves were constructed by non-linear regression analysis using the sigmoidal dose response (variable slope) model and best-fit ID50 values were calculated. […]

The mark [4] stands for this setting: [3H]-Diprenorphine 0.5 nM, CHO-K1 membranes, read-out: pKi at the human mu opioid receptor (converted).

Each structure is given as a SMILES string. Where two headings read alike, the source gives them in different places.

T1 sequence (P35372 whole entry): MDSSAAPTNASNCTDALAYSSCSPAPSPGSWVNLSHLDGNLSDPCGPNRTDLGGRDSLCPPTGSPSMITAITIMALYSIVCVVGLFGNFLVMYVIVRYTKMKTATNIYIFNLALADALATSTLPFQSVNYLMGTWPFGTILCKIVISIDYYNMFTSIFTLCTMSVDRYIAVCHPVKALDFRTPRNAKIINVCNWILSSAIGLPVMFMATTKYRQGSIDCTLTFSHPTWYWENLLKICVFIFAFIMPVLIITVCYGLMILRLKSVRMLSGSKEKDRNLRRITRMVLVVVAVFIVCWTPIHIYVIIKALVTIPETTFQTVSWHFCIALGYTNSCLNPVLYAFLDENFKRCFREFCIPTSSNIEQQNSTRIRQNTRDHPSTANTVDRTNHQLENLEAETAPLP

Consider `CCCc1cn(CCN2[C@@H]3CC[C@H]2C[C@@H](c2cccc(C(N)=O)c2)C3)nn1` [Example 8, 3-endo-{8-[2-(4-Propyl-[1,2,3]-triazol-1-yl)-ethyl]-8-aza-bicyclo[3.2.1]oct-3-yl}benzamide], for which, on human mu opioid receptor [1] (setting [4]), the Ki is 79.4 pM. In addition, the Emax at human mu opioid receptor [2] was -4%.
On the same counts, the results for `NC(=O)c1cccc([C@H]2C[C@H]3CC[C@@H](C2)N3CCCn2cc(-c3ccc(F)cc3F)nn2)c1` [Example 9, 3-endo-(8-{3-[4-(2,4-Difluorophenyl)-[1,2,3]-triazol-1-yl]-propyl}-8-azabicyclo[3.2.1]oct-3-yl)benzamide] are 50.1 pM and -1%.
On the same counts, the results for `CC(C)Cc1nc(CCCN2[C@@H]3CC[C@H]2C[C@@H](c2cccc(C(N)=O)c2)C3)no1` [Example 14, 3-endo-{8-[3-(5-Isobutyl-1,2,4-oxadiazol-3-yl)-propyl]-8-aza-bicyclo[3.2.1]oct-3-yl}benzamide] are 1580 pM and -11%.
In the case of `NC(=O)c1cccc([C@H]2C[C@H]3CC[C@@H](C2)N3Cc2cncn2Cc2ccccc2)c1` [Example 11, 3-endo-[8-(3-Benzyl-1H-imidazol-4-ylmethyl)-8-aza-bicyclo[3.2.1]oct-3-yl]-benzamide], the Ki at human mu opioid receptor [1] (setting [4]) was 631 pM. On human mu opioid receptor [2], the Emax was 6%.
On human mu opioid receptor [1], `NC(=O)c1cccc([C@H]2C[C@H]3CC[C@@H](C2)N3Cc2cn(C3CCC(F)(F)CC3)nn2)c1` [Example 4, 3-endo-{8-[1-(4,4-Difluorocyclohexyl)-1H-1,2,3-triazol-4-ylmethyl]-8-azabicyclo[3.2.1]oct-3-yl}benzamide] returned a Ki of 100 pM. Moreover, the Emax on human mu opioid receptor [2] stood at 0%. Besides, in assay [3], the “ID50, dose required for 50% reversal of the effects of loperamide” value came out at 0.25 mg/kg.
The corresponding values for `NC(=O)c1cccc([C@H]2C[C@H]3CC[C@@H](C2)N3Cc2cn(C3CCCCC3)nn2)c1` [Example 1, 3-endo-[8-(1-Cyclohexyl-1H-[1,2,3]-triazol-4-ylmethyl)-8-azabicyclo[3.2.1]oct-3-yl]benzamide] are 50.1 pM, -4% and 0.13 mg/kg.

The values above are taken from patent US8211894B2, “Heteroarylalkyl-8-azabicyclo[3.2.1]octane compounds as mu opioid receptor antagonists” (Theravance, Inc., priority 2007, dated 2012).
